From patent US20250312292A1, “PHARMACEUTICAL COMPOSITION FOR USE IN THERAPEUTIC OR PROPHYLACTIC METHOD FOR KIDNEY INJURY, COMBINED MEDICINE CONTAINING SAID PHARMACEUTICAL COMPOSITION, AND CCBL1 INHIBITOR” (FUJITA ACADEMY, priority 2022, published 2025)
Like-named read-outs stand apart in the source and are kept apart here. Values belong to the compound of their own block, whether it stands above or below them.

How the values were obtained:
[1] = target: T1, recombinant CCBL1 (KAT1) (Homo sapiens, UniProt Q16773); test: Screening of KAT1 (CCBL1) inhibitory activity, L-kynurenine fluorescence assay; type: biochemical; conditions: for inhibition at 10 µM: 10 μM of the compound, 1 mM L-kynurenine, room temperature 2 hours; for CCBL1 (KAT1) inhibitory activity, in words: screening result
T1 construct: made in house; host or cells: Sf9 insect cells (baculovirus)
T1 sequence (Q16773 1-422): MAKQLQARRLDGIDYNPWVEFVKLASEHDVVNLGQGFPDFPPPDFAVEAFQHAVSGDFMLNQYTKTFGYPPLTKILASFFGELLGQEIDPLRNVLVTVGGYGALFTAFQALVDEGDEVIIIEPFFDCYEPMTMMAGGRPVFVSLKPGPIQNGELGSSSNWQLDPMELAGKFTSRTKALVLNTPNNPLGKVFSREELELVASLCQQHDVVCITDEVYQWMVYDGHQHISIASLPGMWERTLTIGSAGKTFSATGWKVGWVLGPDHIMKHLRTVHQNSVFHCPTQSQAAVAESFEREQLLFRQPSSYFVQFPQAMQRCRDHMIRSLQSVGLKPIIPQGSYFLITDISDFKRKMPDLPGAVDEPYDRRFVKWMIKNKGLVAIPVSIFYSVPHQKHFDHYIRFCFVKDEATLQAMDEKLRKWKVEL
Procedure: (§1) Sf9 cells infected with baculovirus containing human CCBL1 gene were centrifuged and thereby pelletized and dissolved in 50 mM phosphate buffer solution (pH 8.0) containing 300 mM NaCl and 10 mM imidazole. After ultrasonic treatment, the cell lysate was centrifuged at 10,000×g at 4° C. for 20 minutes, and recombinant CCBL1 in the supernatant was added to a pre-equalized Ni-NTA resin (QIAGEN). An enzyme/resin composite was transferred to a column and washed with a buffer solution containing 300 mM NaCl and 20 mM imidazole in 50 mM phosphate buffer solution (pH 8.0), and recombinant CCBL1 was eluted with a buffer solution (pH 8.0) containing 300 mM NaCl, 250 mM imidazole, and 50 mM phosphate. The enzyme fraction was pooled based on the purity determined by using SDS-PAGE and desalted by using a PD-10 column (GE Healthcare, U.K.)
The CCBL1 inhibitory compound was obtained by screening KAT1 inhibitory activity of compounds included in a compound library (The Spectrum Collection) provided by Center for Supporting Drug Discovery and Life Science Research in Graduate School of Pharmaceutical Sciences, Osaka University. Here, 10 ng/μl recombinant CCBL, 1 mM L-kynurenine, 1 mM sodium pyruvate, 100 μM PLP, and 0.005% Tween 20 mixture solution contained in 150 mM of 2-amino-2-methyl-1-propanol buffer solution were added to a 384-well plate containing 10 μM of the compound and then incubated at room temperature for 2 hours. Subsequently, 20 μL of 300 mM zinc acetate solution was added thereto, and the fluorescent intensities at an excitation wavelength 340 nm and a fluorescent wavelength 460 nm were measured by Infinite M1000 plate reader (TECAN). The Control without containing the compound was defined as reaction 100%, the Background without containing any enzyme was defined as reaction 0%, and the inhibitory activity of the compound (Sample) was calculated based on the following equation.

[2] = system: cisplatin-induced kidney injury model mice; test: Cisplatin-induced kidney injury model mouse; conditions: for BUN level in serum / Cre level in serum: compound 25, 50, 100 mg/kg i.p. 30 minutes before cisplatin 20 mg/kg, third day
Procedure: (§5) To create cisplatin-induced kidney injury model mice, cisplatin (20 mg/kg) was administered once by intraperitoneal administration to male C57BL/6J mice with the body weight of 20 to 25 g (Japan SLC). To examine the kidney protection effect (prophylactic effect) of the compounds expressed by formulae (2) and (3) (hereafter, simply referred to as “compound”) on a cisplatin-induced kidney injury, the compound was intraperitoneally administered with doses of 0, 25, 50, and 100 mg/kg 30 minutes before the cisplatin injection. The mice were sacrificed on the third day after the cisplatin injection. Samples of the blood and the kidneys were taken and preserved at −80° C. for further analysis.
(§6) The levels of creatinine (Cre) and blood urea nitrogen (BUN) in serum were measured by using a fully automated blood biochemistry analyzer (BioMajesty JCA-BM9130) in accordance with a manufacturer-instructed method.

[3] = target: T2, recombinant human CCBL1 (Homo sapiens, UniProt Q16773); test: Inhibition of CCBL1 beta-elimination activity by compound; type: biochemical; conditions: recombinant human CCBL1, compound at different concentrations
T2 construct: made in house; host or cells: Sf9 insect cells (baculovirus)
T2 sequence (Q16773 1-422): T1 sequence (Q16773 1-422)
Procedure: as §1
The beta-elimination activity of CCBL1 was measured in accordance with a method described in “Arun Kumar Selvam et al., “A Novel Assay Method to Determine the—Elimination of Se-Methylselenocysteine to Monomethylselenol by Kynurenine Amino transferase 1” Antioxidants 2020, 9, 139; doi: 10. 3390/antiox 9020139″. […] Subsequently, 70 μL of the assay mixture was incubated at 37° C. for 10 minutes, 130 μL of 1M NaOH was added thereto, and the increase in the absorbance at 520 nm was measured by using a spectrophotometer (Nivo Multiplate Microplate Reader, PerkinElmer). […]

[4] = system: tumor allograft model mice; test: Tumor allograft model mouse (Lewis lung cancer cells); type: in vivo
Procedure: Tumors were measured by using vernier calipers, and tumor volumes were calculated as a product of length by width by width. After the tumor reached a certain size, the compound (100 mg/kg) was intraperitoneally administered 30 minutes before the intraperitoneal administration of 20 mg/kg of cisplatin.
Renal tubular damage was scored as follows.

[5] = system: cisplatin-induced kidney injury model mice; conditions: mouse, in vivo
Procedure: as §5, §6

[6] = system: CCBL1 overexpressed LLC/PK1 cells; test: Cell viability assay, cisplatin-induced renal tubular cell death; type: cell-based; conditions: 24 hours
Procedure: (§2) LLC/PK1 (pig kidney epithelium), LLC (Lewis lung cancer), and MDA-MB-231 (human breast cancer) cells were obtained from JCRB cell bank (Japan). The LLC/PK1 cells were transfected by a human CCBL1 expression vector, CCBL1 stable overexpression cells were cloned into CCBL1 overexpressed LLC/PK1 cells, which were used for further experiments. The CCBL1 overexpressed LLC/PK1 cells were proliferated in 199/EBSS culture medium (10% FBS, 1% penicillin/streptomycin, and 400 μg/ml of G418), and LLC and MDA-MB-231 cells were proliferated at 37° C. under humidified atmosphere of 5% CO2 in DMEM culture medium (10% FBS and 1% penicillin/streptomycin).
(§3) A cell viability assay kit was used to measure the cell viability. […] The absorbance at 490 nm was measured by using a microplate reader (Molecular Devices, USA). The cell viability was calculated as a value of the absorbance of treated cells relative to the absorbance of untreated cells.
(§4) To examine whether or not the compound X prevents cisplatin-induced renal uriniferous tubular cell death, CCBL1 overexpressed LLC/PK1 cells were treated with different concentrations of cisplatin and the compound X for 24 hours, and the cell viability was evaluated by cell proliferation assay. The expression amount of human CCBL1 in LLC-PK1 cells was determined by immunoblotting. […]

[7] = system: human breast cancer cell lines (MDA-MB-231 cells); test: Cell viability assay, cisplatin-induced tumor cell death; type: cell-based; conditions: with cisplatin, 24 hours
Procedure: as §2, §3, §4

[8] = system: Lewis lung cancer cell lines (LLC cells); test: as above; type: cell-based; conditions: with cisplatin, 24 hours
Procedure: as §2, §3, §4

[9] = cisplatin 20 mg/kg i.p. alone, tumor-bearing mice
[10] = both cisplatin and compound administered
[11] = compound plus cisplatin, tumor-bearing mice
[12] = compound and cisplatin versus cisplatin alone

inhibition at 10 µM [1]: 5.6%
SMILES: COc1cc(O)c(C(C)=O)c(O)c1 [4-O-METHYLPHLORACETOPHENONE, 4-O-methylphloracetophenone, reference compound]
CCBL1 (KAT1) inhibitory activity, in words [1]: exhibits little CCBL1 inhibitory activity

inhibition at 10 µM [1]: 71.9%
SMILES: CCC(=O)c1c(O)cc(O)cc1O [FLOPROPIONE, 1-(2,4,6-trihydroxyphenyl) propan-1-one]
BUN level in serum [2]: reduced Cre and BUN in a dose dependent manner | Cre level in serum [2]: reduced Cre and BUN in a dose dependent manner | BUN level in serum, compound administered alone ([2]; compound alone, no cisplatin): no change was found in the Cre and BUN levels | Cre level in serum, compound administered alone ([2]; compound alone, no cisplatin): no change was found in the Cre and BUN levels | inhibitory activity to CCBL1 β elimination activity [3]: inhibited by flopropione in a concentration dependent manner

SMILES: O=C(CCc1ccc(O)cc1)c1c(O)cc(O)cc1O [PHLORETIN, 3-(4-hydroxyphenyl)-1-(2,4,6-trihydroxyphenyl) propan-1-one]
inhibition at 10 µM [1]: 83% | CCBL1 (KAT1) inhibitory activity, in words [1]: has a CCBL1 inhibitory function

SMILES: N.N.[Cl][Pt][Cl] [cisplatin]
tumor size, cisplatin ([4]; cisplatin 20 mg/kg i.p.): reduced the tumor size | body weight, cisplatin alone [4, 9]: reduced the body weight | relative kidney weight, cisplatin alone [4, 9]: increased the relative kidney weight | BUN level in serum, cisplatin alone ([2]; cisplatin 20 mg/kg i.p. alone): increased the Cre and BUN levels | Cre level in serum, cisplatin alone ([2]; cisplatin 20 mg/kg i.p. alone): increased the Cre and BUN levels | body weight, cisplatin alone ([2]; cisplatin 20 mg/kg i.p. alone): reduced the body weight | relative kidney weight, cisplatin alone ([2]; cisplatin 20 mg/kg i.p. alone): increased the relative kidney weight

SMILES: CC(=O)c1c(O)cc(O)cc1O [compound X, 2,4,6-trihydroxyacetophenone]
BUN level in serum, compound administered alone [5]: no change in the Cre and BUN levels was found | Cre level in serum, compound administered alone [5]: no change in the Cre and BUN levels was found | injury of renal uriniferous tubular cells, compound alone (histopathology) [5]: does not injure renal uriniferous tubular cells | body weight change [4, 10]: the body weight changed little | relative kidney weight [4, 10]: the relative kidney weight decreased | tumor size reduction by cisplatin when compound is co-administered ([4]; compound 100 mg/kg i.p. 30 minutes before cisplatin 20 mg/kg): this effect did not change | renal uriniferous tubular damage score ([4]; compound plus cisplatin versus cisplatin alone): reduces the renal uriniferous tubular damage score | BUN concentration in serum [4, 11]: reduced the increase in the cisplatin-induced BUN and Cre in a dose dependent manner | Cre concentration in serum [4, 11]: reduced the increase in the cisplatin-induced BUN and Cre in a dose dependent manner | LLC-PK1 cell death (cell viability) without cisplatin ([6]; cisplatin 0 μM): did not affect the LLC-PK1 cell death | cisplatin-induced renal tubular cell death (cell viability) ([6]; cisplatin 50 μM): prevented the cisplatin-induced renal tubular cell death in a dose dependent manner | relative kidney weight ([2]; both cisplatin (20 mg/kg i.p.) and compound administered): did not increase the relative kidney weight | BUN level in serum [2]: reduces the Cre and BUN levels in a dose dependent manner | Cre level in serum [2]: reduces the Cre and BUN levels in a dose dependent manner | BAX level in kidney (immunoblotting) [2, 12]: decreased | Cleaved Caspase-3 level in kidney (immunoblotting) [2, 12]: decreased | cisplatin-induced renal tubular cell death (histopathological observation, PAS stain) ([2]; compound plus cisplatin): suppresses the cisplatin-induced renal tubular cell death in a dose dependent manner | tubular injury score ([2]; group of cisplatin and compound versus only cisplatin): lower tubular injury scores than the group of only cisplatin | inhibitory activity to CCBL1 β elimination activity [3]: inhibited by the compound X in a concentration dependent manner | cisplatin-induced tumor cell death (cell viability) [7]: did not affect the cisplatin-induced tumor cell death | cisplatin-induced tumor cell death (cell viability) [8]: did not affect the cisplatin-induced tumor cell death | inhibition at 10 µM [1]: 88.6%
